The experiment has as its system P388. The experiment can be described thus: Cytotoxicity against mouse P388 cells after 3 days by MTT assay. The experiment is classed as functional, cell-based. The note with it: P388, 72 h. (In general: Tetrazolium assays rely on reduction of a dye to a coloured formazan, in cell work by metabolically active cells.)

Each structure is given as a SMILES string. Converted amounts (≈) assume the structure as drawn.

Data on twelve compounds can be found in ChEMBL document CHEMBL1150905, “Cytotoxic quassinoids from Simaba cedron” (J Nat Prod, 1998).

For orientation: IC50 means the concentration at which inhibition is half-maximal.

Take `CC1=C[C@H](O)[C@@H](O)[C@]2(C)[C@H]3[C@@]4(O)OC[C@]35[C@H]([C@@H](C)[C@H]4O)[C@@H](O)C(=O)O[C@@H]5C[C@@H]12` [GLAUCARUBOL]: the IC50 was more than 100 µg/mL.
`CC1=CC(=O)O[C@@H]1[C@@]1(C)C[C@H]2OC(=O)C[C@H]3[C@@H](C)[C@@H](O)[C@]4(O)OC[C@]23[C@@H]14` [AILANQUASSIN A] displayed an IC50 of 39 µg/mL (≈ 107 µM).
Regarding `CC1=CC(=O)[C@@H](O)[C@]2(C)[C@H]3[C@@H](O)[C@H](O)[C@@]4(C)OC[C@@]35[C@@H](C[C@@H]12)OC(=O)[C@H](O)[C@@H]45` [YADANZIOLIDE C], inhibition was half-maximal at 2.4 µg/mL (≈ 6.08 µM) (IC50).
In turn, `CC1=C[C@H](O)[C@@H](O)[C@]2(C)[C@H]3[C@@]4(O)OC[C@@]35[C@@H](C[C@@H]12)OC(=O)C[C@H]5[C@@H](C)[C@H]4O` [CHAPARRIN] gave an IC50 of more than 100 µg/mL.
Then `CC1=CC(=O)[C@@H](O)[C@]2(C)[C@H]3[C@]4(O)OC[C@]35[C@H]([C@@H](C)[C@H]4O)[C@@H](O)C(=O)O[C@@H]5C[C@@H]12` [GLAUCARUBOLONE], with 1.4 µg/mL (≈ 3.55 µM).
As for `CC1=CC(=O)O[C@H]1[C@@]1(C)C[C@H]2OC(=O)C[C@H]3[C@@H](C)[C@@H](O)[C@]4(O)OC[C@]23[C@@H]14` [CEDRONOLACTONE B], half-maximal inhibition (IC50) was put at 6.5 µg/mL (≈ 17.8 µM).
`CC(=O)O[C@H]1C[C@@](C)([C@H]2OC(=O)C[C@@H]2CO)C2=CC(=O)O[C@@H]3C[C@@H]4[C@](C)(C(=O)C=C[C@@]4(C)O)[C@@H]1[C@]23C` [GUANEPOLIDE] returned an IC50 of 70 µg/mL (≈ 139 µM).
Compound `CC1=CC(=O)[C@@H](O)[C@]2(C)[C@H]3[C@@H](O)[C@H](O)[C@@]4(C)OC[C@@]35[C@@H](C[C@@H]12)OC(=O)[C@H](OC(=O)CC(C)C)[C@@H]45` [CEDRONOLACTONE A] yielded an IC50 of 0.0074 µg/mL (≈ 0.0155 µM).
As for `CC1=CC(=O)O[C@H]1[C@@]1(C)C[C@H]2OC(=O)[C@H](O)[C@H]3[C@@H](C)[C@@H](O)[C@]4(O)OC[C@@]32[C@@H]14` [CEDRONOLACTONE C], half-maximal inhibition (IC50) required 49 µg/mL (≈ 129 µM). Compared with the last compound, the IC50 is about 6600-fold higher.
`CC1=CC(=O)[C@@H](O)[C@]2(C)[C@H]3[C@@]4(O)OC[C@@]35[C@@H](C[C@@H]12)OC(=O)C[C@H]5[C@@H](C)[C@H]4O` [CHAPARRINONE] returned an IC50 of 0.92 µg/mL (≈ 2.43 µM). Compared with the last compound, the IC50 is about 53-fold lower.
As for `CC[C@@H](C)C(=O)O[C@H]1C(=O)O[C@@H]2C[C@H]3C(C)=CC(=O)[C@@H](O)[C@]3(C)[C@H]3[C@@H](O)[C@H](O)[C@]4(C)OC[C@]32[C@@H]14` [SIMALIKALACTONE D], it took 0.0055 µg/mL (≈ 0.0115 µM) to reach half-maximal inhibition (IC50).
Regarding `CC1=CC(=O)O[C@@H]1[C@@]1(C)C[C@H]2OC(=O)[C@H](O)[C@H]3[C@@H](C)[C@@H](O)[C@]4(O)OC[C@@]32[C@@H]14` [POLYANDROL], the IC50 stood at 17 µg/mL (≈ 44.7 µM).
